Consider 1 molecule from paper PMC2064598 (The Journal of Cell Biology, 2006).

One assay deals with T1, hGrA (Homo sapiens, UniProt P12544).
T1 sequence (P12544 29-262): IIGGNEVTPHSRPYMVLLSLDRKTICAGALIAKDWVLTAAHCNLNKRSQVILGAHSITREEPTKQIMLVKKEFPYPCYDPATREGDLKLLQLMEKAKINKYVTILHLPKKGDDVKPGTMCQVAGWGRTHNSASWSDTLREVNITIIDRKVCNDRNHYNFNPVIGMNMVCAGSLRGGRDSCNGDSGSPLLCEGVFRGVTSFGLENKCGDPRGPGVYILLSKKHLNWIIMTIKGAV
The assay is described as follows: absorbance progress curve. In kind it is biochemical.

The next assay has as its target T2, mGrA (Mus musculus, UniProt P11032).
T2 sequence (P11032 29-260): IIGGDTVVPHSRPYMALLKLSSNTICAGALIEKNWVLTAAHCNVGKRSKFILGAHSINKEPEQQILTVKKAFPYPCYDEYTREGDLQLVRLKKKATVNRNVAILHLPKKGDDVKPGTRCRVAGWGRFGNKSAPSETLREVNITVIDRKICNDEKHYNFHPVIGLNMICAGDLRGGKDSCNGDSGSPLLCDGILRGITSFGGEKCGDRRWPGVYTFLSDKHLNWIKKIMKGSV
Kind of assay: absorbance progress curve. Format: biochemical.

Molecules are shown by their SMILES.

For the molecule `NCCCC[C@H](NC(=O)OCc1ccccc1)C(=O)SCc1ccccc1` [benzyloxy-carbonyl-Lys-thiobenzyl ester], the specific activity entry on hGrA was “Progress curves of mGrA (closed boxes) and hGrA (open boxes) cleaving benzyloxy-carbonyl-Lys-thiobenzyl ester”; at mGrA, “Progress curves of mGrA (closed boxes) and hGrA (open boxes) cleaving benzyloxy-carbonyl-Lys-thiobenzyl ester”.
